{"source": "ChEMBL document CHEMBL5465560", "about": "“Selectivity Literature for EUbOPEN Chemogenomic Library” (2024)", "key": {"[1]": {"biological_target": "T1, STE20-related kinase adapter protein alpha (Homo sapiens) (UniProt Q7RTN6)", "T1 sequence (whole entry)": "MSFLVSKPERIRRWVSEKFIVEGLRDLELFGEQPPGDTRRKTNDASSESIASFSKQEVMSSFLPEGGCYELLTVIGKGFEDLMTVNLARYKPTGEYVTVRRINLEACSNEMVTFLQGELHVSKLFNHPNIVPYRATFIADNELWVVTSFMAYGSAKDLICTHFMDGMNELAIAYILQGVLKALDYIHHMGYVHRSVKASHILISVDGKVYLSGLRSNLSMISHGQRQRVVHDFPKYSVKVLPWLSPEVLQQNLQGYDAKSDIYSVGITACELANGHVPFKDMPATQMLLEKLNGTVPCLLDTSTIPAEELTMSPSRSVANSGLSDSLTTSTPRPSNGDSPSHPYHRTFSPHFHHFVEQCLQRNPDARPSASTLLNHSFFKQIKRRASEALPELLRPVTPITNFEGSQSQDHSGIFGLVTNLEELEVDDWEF", "test": "Selectivity interaction (ActivX KiNativ screen (kinase selectivity in THP-1 cell lysates)) EUB0000639a STRADA", "assay_type": "subcellular", "conditions": "lysate"}, "[2]": {"biological_target": "Cyclin-dependent kinase 7 (Homo sapiens, UniProt P50613)", "sequence (P50613 whole entry)": "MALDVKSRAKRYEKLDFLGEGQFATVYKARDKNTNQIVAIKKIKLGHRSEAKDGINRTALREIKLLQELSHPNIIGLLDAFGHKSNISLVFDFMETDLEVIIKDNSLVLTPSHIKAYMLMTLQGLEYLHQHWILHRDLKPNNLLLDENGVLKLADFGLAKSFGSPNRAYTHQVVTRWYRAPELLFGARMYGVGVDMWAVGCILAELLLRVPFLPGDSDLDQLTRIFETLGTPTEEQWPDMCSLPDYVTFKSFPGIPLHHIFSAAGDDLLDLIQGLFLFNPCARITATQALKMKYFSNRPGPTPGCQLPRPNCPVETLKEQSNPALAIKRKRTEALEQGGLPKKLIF", "test": "Selectivity interaction (KinomeScan (DiscoverX)) EUB0001550a CDK7", "conditions": "at 1 µM"}, "[3]": {"biological_target": "T2, Serine/threonine-protein kinase 17B (Homo sapiens) (UniProt O94768)", "T2 sequence (whole entry)": "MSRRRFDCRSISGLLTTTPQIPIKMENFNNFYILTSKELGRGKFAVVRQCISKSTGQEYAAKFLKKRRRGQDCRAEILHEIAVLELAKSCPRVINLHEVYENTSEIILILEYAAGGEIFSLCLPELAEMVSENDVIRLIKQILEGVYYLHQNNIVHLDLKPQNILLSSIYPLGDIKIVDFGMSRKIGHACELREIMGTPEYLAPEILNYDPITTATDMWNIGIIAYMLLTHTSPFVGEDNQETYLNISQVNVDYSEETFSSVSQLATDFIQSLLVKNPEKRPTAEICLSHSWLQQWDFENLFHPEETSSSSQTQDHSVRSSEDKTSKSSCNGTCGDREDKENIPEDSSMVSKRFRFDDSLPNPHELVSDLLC", "conditions": "at 10 µM"}, "[4]": {"biological_target": "T3, MAP kinase-activated protein kinase 5 (Homo sapiens) (UniProt Q8IW41)", "T3 sequence (whole entry)": "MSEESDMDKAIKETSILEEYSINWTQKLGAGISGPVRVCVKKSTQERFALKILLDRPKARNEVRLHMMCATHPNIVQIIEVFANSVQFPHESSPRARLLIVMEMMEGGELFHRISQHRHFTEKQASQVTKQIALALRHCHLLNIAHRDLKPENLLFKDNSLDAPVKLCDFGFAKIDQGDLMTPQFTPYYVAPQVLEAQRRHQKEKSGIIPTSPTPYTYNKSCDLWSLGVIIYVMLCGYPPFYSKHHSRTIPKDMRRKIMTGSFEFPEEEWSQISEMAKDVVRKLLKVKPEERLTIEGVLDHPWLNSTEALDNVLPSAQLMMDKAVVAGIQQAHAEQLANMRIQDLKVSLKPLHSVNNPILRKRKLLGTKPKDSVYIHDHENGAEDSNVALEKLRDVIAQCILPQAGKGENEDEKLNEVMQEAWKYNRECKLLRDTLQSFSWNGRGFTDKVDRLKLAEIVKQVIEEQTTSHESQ", "conditions": "at 10 µM"}, "[5]": {"biological_target": "Fibroblast growth factor receptor 2 (Homo sapiens) (UniProt P21802)", "sequence (P21802 22-821 limits assumed)": "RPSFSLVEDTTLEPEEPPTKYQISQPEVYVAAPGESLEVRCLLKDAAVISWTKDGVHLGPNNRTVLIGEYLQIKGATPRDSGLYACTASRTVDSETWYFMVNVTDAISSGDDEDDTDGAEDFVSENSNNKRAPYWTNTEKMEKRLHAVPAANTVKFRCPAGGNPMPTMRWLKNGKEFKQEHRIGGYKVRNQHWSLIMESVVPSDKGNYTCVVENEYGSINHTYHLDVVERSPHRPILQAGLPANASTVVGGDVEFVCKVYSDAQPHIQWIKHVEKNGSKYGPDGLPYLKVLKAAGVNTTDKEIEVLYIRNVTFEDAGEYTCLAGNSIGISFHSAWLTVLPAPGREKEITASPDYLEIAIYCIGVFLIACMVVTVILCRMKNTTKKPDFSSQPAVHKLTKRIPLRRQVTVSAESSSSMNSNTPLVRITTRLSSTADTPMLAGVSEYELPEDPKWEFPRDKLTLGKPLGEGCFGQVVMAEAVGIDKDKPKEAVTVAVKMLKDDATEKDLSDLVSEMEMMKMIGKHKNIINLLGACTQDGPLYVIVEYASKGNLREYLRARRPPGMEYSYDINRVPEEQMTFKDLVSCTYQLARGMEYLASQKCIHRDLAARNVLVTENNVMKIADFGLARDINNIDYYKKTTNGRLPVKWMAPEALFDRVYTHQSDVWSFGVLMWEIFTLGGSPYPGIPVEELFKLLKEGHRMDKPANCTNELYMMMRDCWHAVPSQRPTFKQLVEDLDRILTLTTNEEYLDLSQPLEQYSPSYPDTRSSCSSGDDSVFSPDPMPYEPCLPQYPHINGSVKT", "test": "Selectivity interaction (KinomeScan (DiscoverX)) EUB0000229b FGFR2", "conditions": "at 10 µM"}, "[6]": {"biological_target": "T4, Rhodopsin kinase GRK7 (Homo sapiens) (UniProt Q8WTQ7)", "T4 sequence (whole entry)": "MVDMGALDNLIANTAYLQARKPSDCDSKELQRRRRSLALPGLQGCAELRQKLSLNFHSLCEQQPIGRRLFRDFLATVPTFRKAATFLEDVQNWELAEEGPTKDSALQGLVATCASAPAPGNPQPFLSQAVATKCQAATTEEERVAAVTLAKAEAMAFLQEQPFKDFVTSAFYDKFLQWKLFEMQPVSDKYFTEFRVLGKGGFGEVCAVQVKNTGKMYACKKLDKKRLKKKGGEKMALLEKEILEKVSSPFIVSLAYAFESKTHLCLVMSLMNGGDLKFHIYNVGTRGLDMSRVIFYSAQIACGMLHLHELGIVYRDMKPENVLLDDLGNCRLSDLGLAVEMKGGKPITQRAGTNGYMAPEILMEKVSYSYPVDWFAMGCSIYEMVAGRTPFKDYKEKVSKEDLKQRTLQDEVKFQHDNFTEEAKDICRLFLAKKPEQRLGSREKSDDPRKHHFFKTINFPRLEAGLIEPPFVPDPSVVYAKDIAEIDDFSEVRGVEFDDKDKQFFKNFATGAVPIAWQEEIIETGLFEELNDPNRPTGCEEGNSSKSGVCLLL", "test": "Selectivity interaction (KinomeScan (DiscoverX)) EUB0001079a GRK7", "conditions": "at 1 µM"}, "[7]": {"biological_target": "Fibroblast growth factor receptor 1 (Homo sapiens, UniProt P11362)", "sequence (P11362 22-822 limits assumed)": "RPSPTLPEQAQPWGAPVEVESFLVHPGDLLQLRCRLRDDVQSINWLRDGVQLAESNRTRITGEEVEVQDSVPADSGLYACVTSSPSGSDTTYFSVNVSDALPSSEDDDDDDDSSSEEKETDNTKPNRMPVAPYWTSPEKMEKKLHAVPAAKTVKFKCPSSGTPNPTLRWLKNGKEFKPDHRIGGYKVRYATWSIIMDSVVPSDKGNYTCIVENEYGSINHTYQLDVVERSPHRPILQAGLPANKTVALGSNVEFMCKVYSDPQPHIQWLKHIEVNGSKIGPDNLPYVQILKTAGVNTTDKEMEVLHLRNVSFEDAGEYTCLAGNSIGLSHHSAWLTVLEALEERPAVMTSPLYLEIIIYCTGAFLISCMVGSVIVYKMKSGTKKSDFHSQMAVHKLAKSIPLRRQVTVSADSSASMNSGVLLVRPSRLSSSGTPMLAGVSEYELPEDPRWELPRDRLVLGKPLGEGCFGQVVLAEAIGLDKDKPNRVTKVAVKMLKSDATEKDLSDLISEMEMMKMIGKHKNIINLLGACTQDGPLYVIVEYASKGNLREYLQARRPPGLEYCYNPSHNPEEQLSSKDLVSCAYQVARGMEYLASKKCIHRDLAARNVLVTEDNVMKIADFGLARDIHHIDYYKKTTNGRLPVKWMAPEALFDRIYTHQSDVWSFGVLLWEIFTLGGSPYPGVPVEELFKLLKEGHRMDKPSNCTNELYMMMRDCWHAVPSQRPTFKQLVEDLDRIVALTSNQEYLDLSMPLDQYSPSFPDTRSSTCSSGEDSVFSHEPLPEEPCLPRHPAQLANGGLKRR", "test": "Selectivity interaction (KinomeScan (DiscoverX)) EUB0000092b FGFR1", "conditions": "at 10 µM"}, "[8]": {"system": "Tyrosine-protein kinase ABL1 (Homo sapiens), P00519 [H396P]", "test": "Selectivity interaction (KinomeScan (DiscoverX)) EUB0000045b ABL1", "conditions": "at 1 µM"}, "[9]": {"biological_target": "Tyrosine-protein kinase JAK1 (Homo sapiens, UniProt P23458)", "sequence (P23458 whole entry)": "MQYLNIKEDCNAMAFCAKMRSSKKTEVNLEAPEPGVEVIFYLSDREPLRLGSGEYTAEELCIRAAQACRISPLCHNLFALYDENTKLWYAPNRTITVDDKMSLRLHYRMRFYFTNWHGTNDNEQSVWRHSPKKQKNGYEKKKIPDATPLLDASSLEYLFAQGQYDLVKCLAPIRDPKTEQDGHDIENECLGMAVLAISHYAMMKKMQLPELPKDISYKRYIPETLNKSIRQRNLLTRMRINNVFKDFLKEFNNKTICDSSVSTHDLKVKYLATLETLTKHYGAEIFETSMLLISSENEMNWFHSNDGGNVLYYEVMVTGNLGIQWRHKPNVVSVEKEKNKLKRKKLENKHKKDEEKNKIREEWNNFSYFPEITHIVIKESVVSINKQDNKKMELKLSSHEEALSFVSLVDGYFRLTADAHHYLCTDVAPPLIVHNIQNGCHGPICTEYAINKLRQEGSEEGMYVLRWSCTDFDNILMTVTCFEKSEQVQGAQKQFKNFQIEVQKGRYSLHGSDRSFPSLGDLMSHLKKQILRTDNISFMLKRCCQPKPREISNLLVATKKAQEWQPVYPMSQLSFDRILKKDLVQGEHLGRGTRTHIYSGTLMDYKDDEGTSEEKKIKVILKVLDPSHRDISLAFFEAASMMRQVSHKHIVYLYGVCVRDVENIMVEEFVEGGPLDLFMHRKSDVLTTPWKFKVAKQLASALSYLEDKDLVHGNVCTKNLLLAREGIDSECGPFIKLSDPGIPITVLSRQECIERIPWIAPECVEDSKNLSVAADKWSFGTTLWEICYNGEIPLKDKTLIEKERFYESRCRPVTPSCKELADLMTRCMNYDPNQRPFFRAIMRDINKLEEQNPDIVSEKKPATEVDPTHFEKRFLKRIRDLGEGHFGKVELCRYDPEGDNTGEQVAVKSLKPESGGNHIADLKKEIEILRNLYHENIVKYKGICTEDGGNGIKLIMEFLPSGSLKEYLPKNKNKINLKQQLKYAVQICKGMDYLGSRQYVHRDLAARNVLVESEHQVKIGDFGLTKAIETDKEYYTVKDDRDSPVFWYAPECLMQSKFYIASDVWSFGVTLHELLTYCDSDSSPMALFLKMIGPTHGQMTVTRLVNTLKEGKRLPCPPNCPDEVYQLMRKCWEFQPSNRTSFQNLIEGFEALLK", "test": "Selectivity interaction (KinomeScan (DiscoverX)) EUB0000655a JAK1", "conditions": "at 10 µM"}, "[10]": {"biological_target": "Dual specificity tyrosine-phosphorylation-regulated kinase 1A (Homo sapiens, UniProt Q13627)", "test": "Selectivity interaction (KinomeScan (DiscoverX)) EUB0000618a DYRK1A", "conditions": "at 10 µM"}, "[11]": {"biological_target": "Tyrosine-protein kinase Fer (Homo sapiens) (UniProt P16591)", "sequence (P16591 whole entry, looked up)": "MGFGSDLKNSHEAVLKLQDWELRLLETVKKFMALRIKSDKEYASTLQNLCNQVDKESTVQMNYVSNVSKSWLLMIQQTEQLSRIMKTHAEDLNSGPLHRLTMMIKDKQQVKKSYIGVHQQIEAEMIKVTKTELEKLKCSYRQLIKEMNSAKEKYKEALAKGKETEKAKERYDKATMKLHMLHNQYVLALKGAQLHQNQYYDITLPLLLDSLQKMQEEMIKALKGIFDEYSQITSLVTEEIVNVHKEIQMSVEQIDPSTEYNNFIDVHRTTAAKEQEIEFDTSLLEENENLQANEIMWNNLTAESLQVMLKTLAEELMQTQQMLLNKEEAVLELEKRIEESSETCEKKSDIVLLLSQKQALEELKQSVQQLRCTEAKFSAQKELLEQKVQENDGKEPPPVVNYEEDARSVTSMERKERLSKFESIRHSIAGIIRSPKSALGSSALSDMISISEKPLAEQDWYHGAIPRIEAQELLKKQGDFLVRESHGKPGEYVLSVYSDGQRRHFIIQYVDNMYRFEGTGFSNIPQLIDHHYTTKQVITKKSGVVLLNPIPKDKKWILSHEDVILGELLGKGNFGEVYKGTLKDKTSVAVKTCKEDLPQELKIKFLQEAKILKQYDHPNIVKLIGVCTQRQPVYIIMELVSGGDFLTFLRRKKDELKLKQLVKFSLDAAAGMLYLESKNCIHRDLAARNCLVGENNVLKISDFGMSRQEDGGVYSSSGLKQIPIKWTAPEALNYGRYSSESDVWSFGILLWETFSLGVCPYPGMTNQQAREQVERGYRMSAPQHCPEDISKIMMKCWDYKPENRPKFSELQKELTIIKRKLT", "test": "Selectivity interaction (Kinase panel (KiNativ target engagement assay in Jurkat cells)) EUB0001635a FER", "assay_type": "cell-based", "conditions": "Selectivity number of off-targets 0.0, Selectivity number of targets 233.0, Source Knowledge https://www.sciencedirect.com/science/article/pii/S2451945619300674?via%3Dihub, at 1 µM"}}}
{"smiles": "CC[C@@H]1[C@H](F)C(=O)N[C@@H]1COc1nccc2cc(C(N)=O)c(OC)cc12", "note": "[ZIMLOVISERTIB]", "values": [{"measurement": "% of inhibition", "setting": "[1]; at 0.01 µM", "value": -13.1, "unit": "%"}, {"measurement": "% of inhibition", "setting": "[1]; at 0.04 µM", "value": 4.6, "unit": "%"}, {"measurement": "% of inhibition", "setting": "[1]; at 0.2 µM", "value": -11.6, "unit": "%"}, {"measurement": "% of inhibition", "setting": "[1]; at 1 µM", "value": 5.4, "unit": "%"}, {"measurement": "% of inhibition", "setting": "[1]; at 5 µM", "value": 3.6, "unit": "%"}]}
{"smiles": "CN(C)CC#Cc1ccc2[nH]c3c(c2c1)-c1nc(N)ncc1CCC3", "values": [{"measurement": "% of control", "setting": "[2]", "value": 20, "unit": "%"}]}
{"smiles": "CCN(CC)CCCCNc1ncc2cc(-c3cc(OC)cc(OC)c3)c(NC(=O)NC(C)(C)C)nc2n1", "values": [{"measurement": "% of control", "setting": "[3]", "value": 100, "unit": "%"}, {"measurement": "% of control", "setting": "[4]", "value": 100, "unit": "%"}]}
{"smiles": "COc1cc(N(C)c2ccnc3ccc(C(F)(F)F)cc23)cc(OC)c1OC", "values": [{"measurement": "% binding", "setting": "[5]", "value": 100, "unit": "%"}]}
{"smiles": "Nc1cnc(N2CCc3cc(S(=O)(=O)Nc4c(F)cc(Cl)cc4F)cc(N4CCCC4=O)c32)nc1", "note": "[TP-020n]", "values": [{"measurement": "% of control", "setting": "[6]", "value": 99, "unit": "%"}]}
{"smiles": "CCC(=O)N1CCN(c2ccc(-n3c(=O)ccc4cnc5ccc(-c6cnc7ccccc7c6)cc5c43)cc2C(F)(F)F)CC1", "values": [{"measurement": "% of control", "setting": "[7]", "value": 96, "unit": "%"}]}
{"smiles": "C=CC(=O)Nc1cc(-n2c(=O)ccc3cnc4ccc(-c5ccc(NS(C)(=O)=O)cc5)cc4c32)ccc1C", "values": [{"measurement": "% of control", "setting": "[8]", "value": 74, "unit": "%"}]}
{"smiles": "CN(C)CCOc1ccc(-c2nc(-c3ccncc3)c(-c3ccc4c(c3)CC/C4=N\\O)[nH]2)cc1", "values": [{"measurement": "% of control", "setting": "[9]", "value": 0.5, "unit": "%"}]}
{"smiles": "O[C@H]1CC[C@H](Nc2ncc3nc(Nc4c(F)cc(F)cc4F)n([C@H]4CCOC4)c3n2)CC1", "values": [{"measurement": "% of control", "setting": "[10]", "value": 98, "unit": "%"}]}
{"smiles": "C=CC(=O)Nc1ccc(C(=O)Nc2[nH]nc3c2CN(C(=O)N[C@H](CN(C)C)c2ccccc2)C3(C)C)cc1", "values": [{"measurement": "% of engagement", "setting": "[11]", "value": -6.9, "unit": "%"}]}
